Measured values taken from ChEMBL document CHEMBL5620375, “Tetrahydrobenzo[h]quinoline derivatives as a novel chemotype for dual antileishmanial-antimalarial activity graced with antitubercular activity: Design, synthesis and biological evaluation” (Eur J Med Chem, 2023).
Converted amounts (≈) assume the structure as drawn.

How the values were obtained:
Plasmodium berghei [1] = assay: Antimalarial activity against Plasmodium berghei ANKA infected in mouse assessed as reduction in parasite growth at 48.4 microM/Kg,po measured after 96 hrs by giemsa staining analysis; format: functional; design: scale not given: the % may be the effect or the level left; conditions: at 48.4 µmol/kg
[2] = system: Mycobacterium tuberculosis; assay: Antitubercular activity against Mycobacterium tuberculosis H37Ra assessed as inhibition of bacterial growth by microplate alamar blue assay; format: functional
Plasmodium berghei [3] = assay: Antimalarial activity against Plasmodium berghei ANKA infected in mouse assessed as parasitemia at 48.4 microM/Kg,po measured after 96 hrs by giemsa staining analysis relative to control; format: functional; conditions: at 48.4 µmol/kg
Leishmania major [4] = assay: Antileishmanial activity against Leishmania major promastigotes assessed as inhibition of parasite growth incubated for 48 hrs by alamar blue reagent based ELISA; format: functional, organism-based
Plasmodium berghei [5] = assay: Antimalarial activity against Plasmodium berghei ANKA infected in mouse assessed as mean survival time at 48.4 microM/Kg,po measured after 96 hrs; format: functional
Leishmania major [6] = assay: Antileishmanial activity against Leishmania major amastigotes assessed as inhibition of parasite growth incubated for 72 hrs by resazurin reagent based ELISA; format: functional, organism-based
Leishmania major [7] = assay: Antileishmanial activity against Leishmania major promastigotes assessed as parasite survival incubated for 48 hrs in presence of 20 uM of folic acid by alamar blue reagent based ELISA relative to control; format: functional
Leishmania major [8] = assay: Antileishmanial activity against Leishmania major promastigotes assessed as parasite survival incubated for 48 hrs in presence of 100 uM of folic acid by alamar blue reagent based ELISA relative to control; format: functional
[9] = Selectivity index, ratio of CC50 for cytotoxicity against African green monkey Vero cells to IC50 for antimalarial activity against chloroquine-resistant Plasmodium falciparum RKL9; format: toxicity, cell-based; conditions: read-out: Ratio CC50/IC50
[10] = Selectivity index, ratio of CC50 for cytotoxicity against African green monkey Vero cells to MIC for antitubercular activity against Mycobacterium tuberculosis H37Ra; format: toxicity, cell-based; conditions: read-out: Selectivity Index
Leishmania major [11] = assay: Antileishmanial activity against Leishmania major promastigotes assessed as parasite survival incubated for 48 hrs by alamar blue reagent based ELISA relative to control; format: functional
[12] = Acute toxicity in mouse assessed as change in body weight at 25 to 150 mg/kg,po administrated for 3 days; format: organism-based; conditions: in vivo, 72 h, dose 25-150 mg/kg, time 3 day
[13] = Acute toxicity in mouse assessed as signs of toxicity at 25 to 150 mg/kg,po administrated for 3 days; format: organism-based; conditions: in vivo, 72 h, dose 25-150 mg/kg, time 3 day
Plasmodium falciparum = assay: Antimalarial activity against chloroquine-resistant Plasmodium falciparum RKL9 assessed as inhibition of parasite growth incubated for 24 hrs by giemsa staining analysis; format: functional, organism-based; conditions: RKL9, 24 h
[14] = Selectivity index, ratio of CC50 for cytotoxicity against African green monkey Vero cells to IC50 for antileishmanial activity against Leishmania major; format: toxicity, cell-based; conditions: read-out: Ratio CC50/IC50
Leishmania major [15] = assay: Antileishmanial activity against Leishmania major promastigotes assessed as parasite survival incubated for 48 hrs in presence of 100 uM of folinic acid by alamar blue reagent based ELISA relative to control; format: functional
[16] = Cytotoxicity against African green monkey Vero cells incubated for 72 hrs by crystal violet staining based assay; format: toxicity, cell-based; conditions: chlorocebus sabaeus
Leishmania major [17] = assay: Antileishmanial activity against Leishmania major promastigotes assessed as parasite survival incubated for 48 hrs in presence of 20 uM of folinic acid by alamar blue reagent based ELISA relative to control; format: functional
[18] = system: Mycobacterium tuberculosis; assay: Antitubercular activity against XDR Mycobacterium tuberculosis RCMB 2674 assessed as inhibition of bacterial growth by microplate alamar blue assay; format: functional
Leishmania major [19] = assay: Antileishmanial activity against Leishmania major promastigotes assessed as parasite survival at 100 uM incubated for 48 hrs by alamar blue reagent based ELISA relative to control
Leishmania major [20] = assay: Antileishmanial activity against Leishmania major promastigotes assessed as parasite survival at 100 uM incubated for 48 hrs in presence of 100 uM of folic acid by alamar blue reagent based ELISA relative to control

| Compound | Activity (Plasmodium berghei [1]) [%] | MIC [2] [µM] | Activity (Plasmodium berghei [3]) [%] | IC50 (Leishmania major [4]) [µM] | Survival (Plasmodium berghei [5]) [days] | IC50 (Leishmania major [6]) [µM] | IC50 (Plasmodium falciparum) [µM] | further results |
| --- | --- | --- | --- | --- | --- | --- | --- | --- |
| N#Cc1c(-c2ccccc2Br)c2c([nH]c1=O)-c1ccccc1CC2 | 60 | 10.3 (≈ 3.9 µg/mL) | 36 | 2.11 | 7.33 | 3.83 |  |  |
| CC(=O)N1CCC(C(=O)NCc2ccc3c(c2)-c2[nH]c(=O)c(C#N)c(-c4cc(Cl)ccc4Cl)c2CC3)CC1 | 96.67 | 28.4 (≈ 15.6 µg/mL) | 3 | 0.409 |  | 0.502 | 0.039 | Survival (Leishmania major [7]): 78%; Survival (Leishmania major [8]): 88%; selectivity ratio [9]: 11800; selectivity ratio [10]: 16; Survival (Leishmania major [11]): 24%; Activity [12]: Non-Toxic; Activity [13]: Non-Toxic; selectivity ratio [14]: 1110; Survival (Leishmania major [15]): 94%; CC50 at 72 h [16]: 455 µM; Survival (Leishmania major [17]): 82% |
| COc1cc(-c2c3c([nH]c(=O)c2C#N)-c2ccccc2CC3)cc(OC)c1OC | 91.11 | 20.1 (≈ 7.81 µg/mL) | 8 | 2.52 | 12.4 | 3.68 | 0.096 |  |
| N#Cc1c(-c2cccs2)c2c([nH]c1=O)-c1ccccc1CC2 | 97.78 | 12.8 (≈ 3.9 µg/mL) | 2 | 2.64 |  | 4.86 | 0.021 | Activity [12]: Non-Toxic; Activity [13]: Non-Toxic |
| COc1ccc(-c2c3c([nH]c(=O)c2C#N)-c2ccccc2CC3)cc1OC | 57.78 | 10.9 (≈ 3.9 µg/mL) | 38 | 2.24 | 8.66 | 4.68 |  |  |
| COc1ccc(OC)c(-c2c3c([nH]c(=O)c2C#N)-c2ccccc2CC3)c1 | 94.44 | 5.44 (≈ 1.95 µg/mL) | 5 | 2.33 |  | 2.98 | 0.089 | MIC [18]: 175 µM (≈ 62.6 µg/mL) |
| N#Cc1c(-c2ccc(Cl)cc2Cl)c2c([nH]c1=O)-c1ccccc1CC2 | 64.44 | 5.31 (≈ 1.95 µg/mL) | 32 | 5.3 | 4.5 | 6 |  | MIC [18]: > 342 µM |
| CC(=O)N1CCC(C(=O)NCc2ccc3c(c2)-c2[nH]c(=O)c(C#N)c(-c4cc(C(F)(F)F)ccc4Cl)c2CC3)CC1 | 37.78 | 53.6 (≈ 31.2 µg/mL) | 56 | 1.24 | 5.66 | 3.26 |  |  |
| COc1ccc(-c2c3c([nH]c(=O)c2C#N)-c2ccccc2CC3)cc1O | 63.33 | 5.66 (≈ 1.95 µg/mL) | 33 | 1.4 | 7.33 | 3.7 |  | MIC [18]: 182 µM (≈ 62.6 µg/mL) |
| Cc1cccc(-c2c3c([nH]c(=O)c2C#N)-c2ccccc2CC3)c1 | 80 | 100 (≈ 31.2 µg/mL) | 18 | 3.46 | 9.33 | 5.58 |  |  |
| COc1cccc(-c2c3c([nH]c(=O)c2C#N)-c2ccccc2CC3)c1 | 87.78 | 23.8 (≈ 7.81 µg/mL) | 11 | 4.15 | 10.66 | 4.88 |  |  |
| COc1ccccc1-c1c2c([nH]c(=O)c1C#N)-c1ccccc1CC2 | 53.33 | 2.98 (≈ 0.979 µg/mL) | 42 | 5.49 | 6.5 | 6.29 |  | selectivity ratio [10]: 127; MIC [18]: 23.8 µM (≈ 7.82 µg/mL); selectivity ratio [14]: 60.6; CC50 at 72 h [16]: 381 µM |
| COc1ccc(-c2c3c([nH]c(=O)c2C#N)-c2ccccc2CC3)cc1 | 71.11 | 11.9 (≈ 3.9 µg/mL) | 26 | 3.9 | 9.66 | 4.7 |  |  |
| COc1cc(-c2c3c([nH]c(=O)c2C#N)-c2ccccc2CC3)ccc1O | 97.78 | 90.7 (≈ 31.2 µg/mL) | 2 | 0.577 |  | 0.695 | 0.019 | Survival (Leishmania major [7]): 76%; Survival (Leishmania major [8]): 85%; selectivity ratio [9]: 18300; selectivity ratio [10]: 4; Survival (Leishmania major [11]): 22%; Activity [12]: Non-Toxic; Activity [13]: Non-Toxic; selectivity ratio [14]: 629; Survival (Leishmania major [15]): 89%; CC50 at 72 h [16]: 363 µM; Survival (Leishmania major [17]): 78% |
| N#Cc1c(-c2ccccc2[N+](=O)[O-])c2c([nH]c1=O)-c1ccccc1CC2 | 81.11 |  | 17 | 4.22 | 8.83 | 5.63 |  |  |
| N#Cc1c(O)nc2c(c1-c1cccc([N+](=O)[O-])c1)CCc1ccccc1-2 | 68.89 | 5.67 (≈ 1.95 µg/mL) | 28 | 2.89 | 7.66 | 3.97 |  | MIC [18]: 91.1 µM (≈ 31.3 µg/mL) |
| CCN(CC)CCCC(C)Nc1ccnc2cc(Cl)ccc12.O=P(O)(O)O.O=P(O)(O)O (configuration not stated) [CHLOROQUINE PHOSPHATE] | 100 |  | 0 |  | 13.12 |  |  |  |
| NNC(=O)c1ccncc1 [ISONIAZID] |  | 0.875 (≈ 0.12 µg/mL) |  |  |  |  |  |  |
| CCc1nc(N)nc(N)c1-c1ccc(Cl)cc1 [PYRIMETHAMINE] | 100 |  | 0 |  |  |  | 0.013 |  |
| COc1cc(Cc2cnc(N)nc2N)cc(OC)c1OC [TRIMETHOPRIM] |  |  |  |  |  |  |  | survival at 100 µM (Leishmania major [19]): 71%; survival at 100 µM (Leishmania major [20]): 99% |
